According to PubChem BioAssay AID1902 (Broad Institute, 2009):

Biological target: S. pyogenes SKKanGAS, kanamycin survival, BacTiterGlo, 6 h
Assay: S. pyogenes SKKanGAS kanamycin growth inhibitors – SKKanGAS strain, luminescence, dose confirmation, streptokinase promoter inhibitor project, dose response (AID 1902);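 also: lower survival reflects blocked streptokinase promoter driving kanamycin resistance gene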

Compound | EC50
Cc1nn(-c2ccccc2)c(Cl)c1/C=N/Nc1ccc(S(=O)(=O)Nc2ccccc2C(=O)O)cc1[N+](=O)[O-] | 1290 nM
O=C(CCc1ccccc1)NNC(=S)NC(=O)c1ccc(Cl)cc1 | 203 nM
CCc1ccc2[nH]c(O)c(N=Nc3nc(-c4ccccc4)cs3)c2c1 | 8800 nM
Nc1nc(NCCOCCO)nc(N2CCCCCC2)c1[N+](=O)[O-] | 5780 nM
Cc1ccc(-c2nn(-c3ccccc3)cc2/C=N/n2c(-c3cccs3)n[nH]c2=S)cc1 | 1950 nM
